Source: patent US20230075856A1, “CYCLIC SULFAMIDE COMPOUNDS FOR TREATMENT OF HBV” (Assembly Biosciences, Inc., priority 2018, published 2023)

Test system: HBV viral load production from HepAD38 cells
Assay: Viral production from HepAD38 cells: viral load in supernatant by qPCR of the HBV core sequence
Type: cell-based
Conditions: 5 days incubation, qPCR of supernatant HBV DNA vs DMSO control, read-out: viral load lowering EC50 (Activity)
How it was run: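 Viral load was measured by qPCR of the HBV core region in supernatant, quantified against DNA standards and compared with DMSO wells. Cells (50,000/well, tetracycline withdrawn, 2% FBS) received compound from 10 μM final for 5 days; EC50 from four-parameter nonlinear regression.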

Row | Substance | EC50 [nM]
1 | N3-(3-chloro-4-fluoro-phenyl)-2-methyl-1,1-dioxo-N5-[(5-phenylisoxazol-3-yl)methyl]- [1149-ISOMER-B] | 100 to 10000
2 | N3-(3-chloro-4-fluoro-phenyl)-N5-[(S)-(2-chlorothiazol-5-yl)-phenyl-methyl]-2-methyl-1,1-dioxo-1,2,6-thiadiazinane-3,5- [1066-ISOMER-B] | < 50
